Data from article PMC9143821, “Design and Synthesis of a Novel 4-aryl-N-(2-alkoxythieno [2,3-b]pyrazine-3-yl)-4-arylpiperazine-1-carboxamide DGG200064 Showed Therapeutic Effect on Colon Cancer through G2/M Arrest” (Pharmaceuticals, 2022).

Legend:
HCT116 and DLD1 cells = test: Immunoblotting of cell cycle and FBXW7 substrate proteins; assay type: cell-based, human; conditions: 6 h
Experimental: HCT116 and DLD1 cells were exposed to increasing concentrations of DGG200064 (0, 10, 50, 100 nM) for 6 h. […] Moreover, there were increased levels of c-Jun by DGG200064 (50 nM) treatment in other 6-colon cancer cells (Figure S1, Supplementary Materials). c-Jun is a component of the transcription factor activator protein 1 (AP-1), which is activated by a variety of extracellular stimuli, such as growth factors and UV irradiation. In cancer cells, activation of c-Jun promotes down-stream target gene transcription, and it is involved in cell proliferation, growth, division, and apoptosis. […] To test whether DGG200064 could induce G2/M cell cycle arrest through the increasing of c-Jun level, the two genes were silenced using c-Jun siRNAs and treated with DGG200064 in HCT116 and DLD1 cells (Figure 3c). When c-Jun was silenced, the amount of cyclin B protein treated by DGG200064 decreased. […]
The whole-cell lysate was prepared using Radioimmunoprecipitation assay buffer (RIPA buffer) prepared in 50 mM Tris-HCl, pH 8.0, with 150 mM sodium chloride, 1.0% Igepal CA-630 (NP-40), 0.5% sodium deoxycholate, 0.1% sodium dodecyl sulfate, protease inhibitor cocktail, and phosphatase inhibitor cocktail. […] Membranes were washed five times with TBST, and chemiluminescence was detected using Westsave™ (Abfrontier, Seoul, Korea). […]

pKa determination = assay type: physicochemical
Excerpt: (§1) Table 4 Physicochemical Properties of the Lead Compounds 7c. | column: 7c

Permeability = assay type: in vitro ADME
Excerpt: as §1

[1] = Maximum tolerated dose evaluation, 2 weeks; assay type: in vivo; conditions: 150 mg/kg oral administration, 2-week evaluation
[2] = test system: HCT116 mouse tumor models; test: HCT116 xenograft mouse tumor model; assay type: in vivo, nude BALB/c mice; conditions: 6 days/week, 21 days
Experimental: We tested the inhibition effect by DGG200064 in the HCT116 mouse tumor models (Figure 6a). Cultured HCT116 cells were injected subcutaneously near the scapulae of 6-week-old female nude BALB/c mice. Oral administration of DGG200064 (60, 120 mg/kg) began when tumors reached a volume of 100 mm^3 and proceeded for 6 days/week. […] Mice were then injected intraperitoneally with BrdU and anesthetized 2 h later. They were then perfused with PBS and killed. To identify the level of c-Jun by DGG200064, HCT116 tumors harvested from mice were fixed and analyzed by immunohistochemical staining for Hematoxylin and c-Jun. […]
Xenografts were initiated in female Bagg and Albino (BALB)/c nude mice (6–8 weeks old; n = 18). […] The size of the primary tumors was measured every 2–3 days using calipers. Tumor volume was calculated using the formula, v = (A × B2)/2, where […] is the short diameter (mm). […]
The isolated tumors issued were then stained with antibodies against BrdU (1:700), c-Jun (1:50). […] Endogenous peroxidase activity was blocked with hydrogen peroxide, and background staining was blocked with V block solution, the primary antibodies were detected with horseradish […] (HRP)-conjugated polymer and developed with diaminobenzidine (DAB). […] Positively stained nuclei were counted, and the differences between the groups were analyzed using Student’s t-test, p values ≤0.05 were considered significant.

logP determination = assay type: physicochemical
Excerpt: as §1

With `COc1cc(OC)cc(N2CCN(C(=O)Nc3nc4sccc4nc3OC)CC2)c1` [Compound 7c, 4-(3,5-Dimethoxyphenyl)-N-(2-methoxythieno[2,3-b]pyrazin-3-yl)piperazine-1-carboxamide] the “cyclin E and c-Myc levels” value (HCT116 and DLD1 cells; HCT116, 0, 10, 50, 100 nM) was “not affected”, the “cyclin B1, c-Jun and p-c-Jun levels” value (HCT116 and DLD1 cells; HCT116 and DLD1, 0, 10, 50, 100 nM) was “dose-dependent increase” and the pKa (pKa determination; first of two values) was 2.39. For the same molecule, the pKa (pKa determination; second of two values) was 11.6, the “Permeability Class” value (Permeability) was “High” and the Papp (Permeability; PAMPA, read-out: Permeability Pe) was 295 nm/s. The body weight [1] was “no loss of body weight”, the “c-Jun expression increase in tumors compared to the control group (IHC)” value ([2]; 60 mg/kg oral) was 1.2 fold and the “c-Jun expression increase in tumors compared to the control group (IHC)” value ([2]; 120 mg/kg oral) was 2 fold. The logP (logP determination) was 2.63.
